What was measured:
GPR41 gene = experiment: induction of GPR41 gene expression in Caco-2 cells (real-time PCR); assay type: cell-based, human; conditions: 5 mM fumaric acid, 60 minutes, differentiated Caco-2 cells; Fig. 2
Procedure: Caco-2 cells were seeded in a 24-well plate at 2 × 10^5 cells/well. After 3 weeks of differentiation induction, 5 mM fumaric acid was added, and cells were collected 60 minutes later. RNA was extracted, and GPR41 gene expression levels were measured by real-time PCR.

per2 reporter cells = experiment: circadian rhythm assay (luciferase reporter assay) using per2 reporter cells; assay type: cell-based, human; conditions: 5 mM fumaric acid
Procedure: Referring to the "Cell-based circadian assays" described in the article by H. Oike et al. (NPL 1), a circadian rhythm assay (luciferase reporter assay) using per2 reporter cells was performed to evaluate the action of fumaric acid on circadian rhythms.
U-2OS cells were transfected with a vector prepared by incorporating the per2 promoter region into a NanoLuc (registered trademark) luciferase vector by using transfection reagent 1 according to a standard method. After about 24 hours, the medium was replaced, and dexamethasone was added at a final concentration of 100 nM to synchronize the cells. After two hours, 1% substrate (Endurazine) was added, and the luminescence intensity of luciferase was measured every 30 minutes using a plate reader equipped with CO2 control and temperature control.
After 25 days, formed colonies were collected and seeded in a 96-well plate (1 × 10^3 cells/well). After three days, the luminescence intensity of luciferase was measured every 60 minutes using a plate reader with CO^2 control and temperature control, in the same manner as described above.
Subsequently, cell lines with minimal variation in circadian rhythm cycle and stable periodicity were selected. These selected cell lines, referred to as "per2 reporter cells" were used in the following experiments.
The prepared per2 reporter cells were seeded in a 96-well plate at a density of 5 × 10^3 cells/well. The medium used was high-glucose medium 1 supplemented with 10% fetal bovine serum (FBS), 1% penicillin-streptomycin, and hygromycin, and the cells were cultured at 37°C under 5% CO2 conditions.
After two days from culture, 100 nM dexamethasone was added, and the cells were treated for 2 hours, followed by adding a 1% substrate (Endurazine). Subsequently, the luminescence intensity of luciferase was measured every 12 minutes. For the measurement, high-glucose medium 2 supplemented with 5% FBS and 1% penicillin-streptomycin was used.
Subsequently, fumaric acid was added to the measurement medium to achieve a final concentration of 5 mM, and the luminescence intensity of luciferase was measured over time using a long-term real-time luminescence measurement system for cultured cells (WSL-1565, Kronos HT) to evaluate changes in circadian rhythm. For a control, the luminescence intensity of luciferase in per2 reporter cells cultured in measurement medium without fumaric acid was measured over time in the same manner.
In the luminescence intensity rhythms, valleys were represented by T and peaks by P, and they were labeled as P1, T1, P2, and T2 in order of appearance. Since P1 was unstable in rhythm, the circadian rhythm of per2 reporter cells was evaluated based on the phases of the valleys (T1 and T2) and peak (P2) after T1.

[1] = fumaric acid-added cells versus control

## O=C(O)/C=C/C(=O)O [Fumaric Acid, fumaric acid]
GPR41 gene
  expression level of the GPR41 gene: increased
per2 reporter cells; calculated from the phase difference between T1 and T2, control 29.6
  circadian rhythm cycle, T2-T1: 26.4 h
per2 reporter cells; first valley (T1) of luciferase luminescence rhythm, U-2OS per2 reporter cells, control 22.4
  phase of circadian rhythm, T1: 22.2 h
per2 reporter cells; [1]
  Difference in Cycle, T2-T1: -3.2 h
  Difference in Phase, P2: -0.6 h
  Difference in Phase, T1: -0.2 h
  Difference in Phase, T2: -3.4 h
per2 reporter cells; peak P2 of luciferase luminescence rhythm, control 34.8
  phase of circadian rhythm, P2: 34.2 h
per2 reporter cells; second valley (T2) of luciferase luminescence rhythm, control 52.0
  phase of circadian rhythm, T2: 48.6 h

From patent EP4759148A1, “ADJUSTMENT OF CIRCADIAN RHYTHM” (MEIJI CO., LTD, priority 2023, dated 2025)
